Data set [1] has as its target T1, Beta-secretase 1 (Homo sapiens, UniProt P56817).
Description: Inhibition of BACE1 in human SH-SY5Y cells expressing wild type betaAPP assessed as reduction in amyloidbeta (1 to 40 residues) level incubated for 24 hrs by HTRF assay
In data set [2] the target is T1, Beta-secretase 1. The source holds these as a separate data set.
Data set [3] in a line: in vitro. The note with it: Sprague-Dawley, rat, liver microsomes. In general terms: Liver microsomes are vesicles of endoplasmic reticulum, rich in cytochrome P450 enzymes.
Description: Metabolic stability in Sprague-Dawley rat liver microsomes assessed as parent compound remaining at 0.1 uM measured after 30 mins in presence of NADPH by LC-MS/MS analysis
Data set [4] can be described thus: in vitro. To be noted: human, pooled liver microsomes.
Description: Metabolic stability in human pooled liver microsomes assessed as parent compound remaining at 0.1 uM measured after 30 mins in presence of NADPH by LC-MS/MS analysis
In another data set the target is hERG (KCNH2) (Homo sapiens, UniProt Q12809). In words: in vitro. To be noted: CHO cells expressing human ERG.
Chain of hERG (KCNH2) (Q12809 whole entry): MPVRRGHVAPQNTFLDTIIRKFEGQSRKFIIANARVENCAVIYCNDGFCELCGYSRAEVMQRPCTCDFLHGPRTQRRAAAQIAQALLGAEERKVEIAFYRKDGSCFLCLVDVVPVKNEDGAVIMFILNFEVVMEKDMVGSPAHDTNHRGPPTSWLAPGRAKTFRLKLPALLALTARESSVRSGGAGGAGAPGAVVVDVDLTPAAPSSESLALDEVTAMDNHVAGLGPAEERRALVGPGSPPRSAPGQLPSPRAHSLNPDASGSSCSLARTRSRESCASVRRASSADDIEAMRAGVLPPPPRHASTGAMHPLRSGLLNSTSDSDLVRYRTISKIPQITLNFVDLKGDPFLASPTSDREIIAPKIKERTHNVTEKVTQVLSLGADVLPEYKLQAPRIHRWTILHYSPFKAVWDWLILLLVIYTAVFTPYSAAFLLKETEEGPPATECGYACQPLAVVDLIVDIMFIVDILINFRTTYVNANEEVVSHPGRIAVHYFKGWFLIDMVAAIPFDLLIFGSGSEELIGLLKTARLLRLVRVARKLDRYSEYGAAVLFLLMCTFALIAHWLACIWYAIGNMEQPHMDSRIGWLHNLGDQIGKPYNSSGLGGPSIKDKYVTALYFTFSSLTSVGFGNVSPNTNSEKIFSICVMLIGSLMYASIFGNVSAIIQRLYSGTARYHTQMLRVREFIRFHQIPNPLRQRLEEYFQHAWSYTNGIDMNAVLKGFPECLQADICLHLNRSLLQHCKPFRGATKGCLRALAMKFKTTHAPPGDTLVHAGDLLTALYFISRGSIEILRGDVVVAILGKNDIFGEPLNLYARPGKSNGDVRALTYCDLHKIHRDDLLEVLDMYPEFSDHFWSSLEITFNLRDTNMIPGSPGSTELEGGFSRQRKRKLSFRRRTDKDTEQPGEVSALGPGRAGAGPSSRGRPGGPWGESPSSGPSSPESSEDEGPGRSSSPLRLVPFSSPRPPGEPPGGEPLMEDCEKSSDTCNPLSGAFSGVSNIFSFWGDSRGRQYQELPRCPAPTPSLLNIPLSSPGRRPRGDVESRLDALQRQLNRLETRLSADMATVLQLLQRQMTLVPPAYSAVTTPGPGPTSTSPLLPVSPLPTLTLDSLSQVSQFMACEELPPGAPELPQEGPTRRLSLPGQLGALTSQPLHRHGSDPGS
In the next data set the target is Cytochrome P450 2D6 (Homo sapiens, UniProt P10635).
Chain of Cytochrome P450 2D6 (P10635 whole entry): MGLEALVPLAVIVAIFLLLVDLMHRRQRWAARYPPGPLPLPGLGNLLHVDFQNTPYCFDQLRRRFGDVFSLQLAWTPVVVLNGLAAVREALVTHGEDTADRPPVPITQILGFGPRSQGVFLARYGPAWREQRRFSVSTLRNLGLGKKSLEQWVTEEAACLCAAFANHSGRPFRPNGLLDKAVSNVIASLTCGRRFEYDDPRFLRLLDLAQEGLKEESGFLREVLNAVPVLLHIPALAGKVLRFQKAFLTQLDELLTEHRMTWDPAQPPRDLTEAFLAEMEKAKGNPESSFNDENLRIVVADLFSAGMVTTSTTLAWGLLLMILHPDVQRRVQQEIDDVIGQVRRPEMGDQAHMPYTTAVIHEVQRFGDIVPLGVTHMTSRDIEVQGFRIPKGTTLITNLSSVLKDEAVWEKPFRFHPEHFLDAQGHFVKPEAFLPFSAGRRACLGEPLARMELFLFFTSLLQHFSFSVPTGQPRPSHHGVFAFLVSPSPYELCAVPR
A further data set has as its target MDR1 (ABCB1, P-gp) (Homo sapiens, UniProt P08183). Kind of data set: in vitro. To be noted: MDCK-MDR1.
Data set [5] in a line: in vitro. The note with it: dog, MDCK.
Description: Apparent permeability in MDCK cells
The conditions of data set [6]: human, microsomes, 1 h, 50 µM.
Description: Drug metabolism in human liver microsomes assessed as NADPH-independent covalent bond binding assessed per mg protein at 50 umol/L incubated for 1 hr in presence of NADPH by liquid scintillation counter analysis
For data set [7] the following is noted: human, microsomes, 1 h, 10 µM.
Description: Drug metabolism in human liver microsomes assessed as total covalent bond binding assessed per mg protein at 10 umol/L incubated for 1 hr in presence of NADPH by liquid scintillation counter analysis
The conditions of data set [8]: human, microsomes, 1 h, 50 µM. This is another data set of the same source.
Description: Drug metabolism in human liver microsomes assessed as total covalent bond binding assessed per mg protein at 50 umol/L incubated for 1 hr in presence of NADPH by liquid scintillation counter analysis
For data set [9] the following is noted: human, microsomes, 1 h, 50 µM. This is another data set of the same source.
Description: Drug metabolism in human liver microsomes assessed as NADPH-dependent covalent bond binding at 50 umol/L incubated for 1 hr in presence of NADPH by liquid scintillation counter analysis
For data set [10] the following is noted: human, microsomes, 1 h, 10 µM. This is another data set of the same source.
Description: Drug metabolism in human liver microsomes assessed as NADPH-independent covalent bond binding assessed per mg protein at 10 umol/L incubated for 1 hr in presence of NADPH by liquid scintillation counter analysis
The conditions of data set [11]: human, microsomes, 1 h, 10 µM. The source holds these as a separate data set.
Description: Drug metabolism in human liver microsomes assessed as NADPH-dependent covalent bond binding assessed per mg protein at 10 umol/L incubated for 1 hr in presence of NADPH by liquid scintillation counter analysis

Chain of MDR1 (ABCB1, P-gp) (P08183 whole entry): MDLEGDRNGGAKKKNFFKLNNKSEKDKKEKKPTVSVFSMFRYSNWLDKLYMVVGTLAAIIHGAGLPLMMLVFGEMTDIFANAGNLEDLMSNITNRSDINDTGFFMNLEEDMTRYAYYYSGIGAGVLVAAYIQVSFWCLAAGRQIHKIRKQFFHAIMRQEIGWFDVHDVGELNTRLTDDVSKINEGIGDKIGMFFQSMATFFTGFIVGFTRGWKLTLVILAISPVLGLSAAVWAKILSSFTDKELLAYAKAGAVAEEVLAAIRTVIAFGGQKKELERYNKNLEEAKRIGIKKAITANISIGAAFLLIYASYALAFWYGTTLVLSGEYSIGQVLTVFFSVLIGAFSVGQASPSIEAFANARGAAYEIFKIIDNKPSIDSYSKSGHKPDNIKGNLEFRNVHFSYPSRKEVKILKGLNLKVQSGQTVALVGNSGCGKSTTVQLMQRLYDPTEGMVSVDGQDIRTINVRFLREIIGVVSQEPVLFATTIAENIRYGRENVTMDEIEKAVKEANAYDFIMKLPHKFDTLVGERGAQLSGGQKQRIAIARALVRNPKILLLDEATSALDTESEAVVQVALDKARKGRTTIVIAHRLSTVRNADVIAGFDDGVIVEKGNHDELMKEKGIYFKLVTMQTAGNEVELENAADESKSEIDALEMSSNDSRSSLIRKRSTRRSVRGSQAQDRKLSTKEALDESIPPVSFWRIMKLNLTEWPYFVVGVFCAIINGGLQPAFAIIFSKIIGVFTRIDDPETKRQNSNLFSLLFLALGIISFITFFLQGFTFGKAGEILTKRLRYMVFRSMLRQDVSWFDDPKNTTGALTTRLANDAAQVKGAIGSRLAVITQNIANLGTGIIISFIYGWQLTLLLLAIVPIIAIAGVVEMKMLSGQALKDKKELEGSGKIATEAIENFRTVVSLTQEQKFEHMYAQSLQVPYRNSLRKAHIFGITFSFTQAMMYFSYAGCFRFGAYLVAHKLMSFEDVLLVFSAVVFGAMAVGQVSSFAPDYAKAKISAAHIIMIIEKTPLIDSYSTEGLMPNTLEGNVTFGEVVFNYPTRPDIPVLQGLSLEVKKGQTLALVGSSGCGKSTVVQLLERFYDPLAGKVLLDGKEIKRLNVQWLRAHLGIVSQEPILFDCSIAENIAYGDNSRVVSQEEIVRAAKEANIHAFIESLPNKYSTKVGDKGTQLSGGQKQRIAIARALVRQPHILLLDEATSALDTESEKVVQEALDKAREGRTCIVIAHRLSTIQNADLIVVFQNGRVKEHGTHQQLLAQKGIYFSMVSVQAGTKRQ
T1 sequence (P56817 whole entry): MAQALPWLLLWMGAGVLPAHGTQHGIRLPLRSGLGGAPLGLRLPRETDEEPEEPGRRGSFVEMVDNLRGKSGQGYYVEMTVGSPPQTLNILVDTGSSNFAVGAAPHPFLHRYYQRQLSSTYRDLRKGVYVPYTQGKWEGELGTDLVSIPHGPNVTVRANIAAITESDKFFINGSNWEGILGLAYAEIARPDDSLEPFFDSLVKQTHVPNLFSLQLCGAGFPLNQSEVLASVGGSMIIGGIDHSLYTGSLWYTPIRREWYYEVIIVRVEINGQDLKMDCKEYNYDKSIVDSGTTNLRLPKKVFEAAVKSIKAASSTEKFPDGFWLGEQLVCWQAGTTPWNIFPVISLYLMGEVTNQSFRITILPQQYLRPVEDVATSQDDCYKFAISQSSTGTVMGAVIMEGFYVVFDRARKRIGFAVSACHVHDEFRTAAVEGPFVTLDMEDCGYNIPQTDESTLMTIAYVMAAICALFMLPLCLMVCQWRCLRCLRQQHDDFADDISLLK
Description for Cytochrome P450 2D6: Inhibition of CYP2D6 in human liver microsomes using dextromethorphan as substrate incubated for 15 mins in presence of NADPH by LC/MS/MS analysis
Description for MDR1 (ABCB1, P-gp): Substrate activity at human MDR1 expressed in MDCK cells assessed as efflux ratio
Description for hERG (KCNH2): Inhibition of human ERG expressed in CHO cells at 5 uM maintained at -80 mV membrane potential by automated patch-clamp assay relative to control
Description for physchem: Dissociation constant, pKa of the compound by capillary electrophoresis method

In the case of `C[C@@]1(c2cc(NC(=O)c3ccc(Cl)cn3)ccc2F)C=CSC(N)=N1`, the IC50 on Beta-secretase 1 [1] was 5.5 nM; against Beta-secretase 1 [2] it was 9.6 nM; on Cytochrome P450 2D6, under 1 µM. Further, the share remaining at 0.5 h, 0.1 µM in “in vitro [3]” was determined as 76%; in “in vitro [4]” it was 78%. The compound also had an inhibition at 5 µM against hERG (KCNH2) of 80%.
Turning to `CC1(c2cccc(C(=O)Nc3ccc(Cl)cn3)c2)CCSC(N)=N1` (stereo not drawn), the IC50 on Beta-secretase 1 [1] came to 170 nM; against Beta-secretase 1 [2], 1450 nM.
As to `C[C@@]1(c2cc(NC(=O)c3ncc(C#N)cc3Cl)ccc2F)C=CSC(N)=N1`, the IC50 at Beta-secretase 1 [1] is 1.6 nM; on Beta-secretase 1 [2], 20 nM; against Cytochrome P450 2D6 it was over 20 µM. The share remaining at 0.5 h, 0.1 µM was found to be 87% in “in vitro [3]” and 85% in “in vitro [4]”. Also, the efflux ratio on MDR1 (ABCB1, P-gp) is 20. The compound further came in with an inhibition at 5 µM on hERG (KCNH2) of 48%.
Take `C[C@@]1(c2cc(NC(=O)c3ccc(F)cn3)ccc2F)C=CSC(N)=N1`: the IC50 was found to be 4.2 nM against Beta-secretase 1 [1], 39 nM at Beta-secretase 1 [2] and 11 µM at Cytochrome P450 2D6. For the same compound, the results for the amount remaining at 0.5 h, 0.1 µM in the data set “in vitro [3]” and in the data set “in vitro [4]” were 60% and 97%, respectively. In addition, the efflux ratio on MDR1 (ABCB1, P-gp) was determined as 2. In addition, at 5 µM the inhibition against hERG (KCNH2) was 67%.
Take `COc1cnc(C(=O)Nc2ccc(F)c([C@]3(C)C=CSC(N)=N3)c2)cn1`: the IC50 was 4.4 nM against Beta-secretase 1 [1], 21 nM at Beta-secretase 1 [2] and under 1 µM against Cytochrome P450 2D6. Besides, the share remaining at 0.5 h, 0.1 µM worked out at 88% in the data set “in vitro [3]” and 27% in the data set “in vitro [4]”. Further, the efflux ratio at MDR1 (ABCB1, P-gp) was 1.4. The compound further gave an inhibition at 5 µM on hERG (KCNH2) of 29%.
Turning to `C=C1C[C@@](C)(c2cc(NC(=O)c3ccc(C#N)cn3)ccc2F)N=C(N)S1`, the IC50 was found to be 1.1 nM on Beta-secretase 1 [1] and 9.1 nM against Beta-secretase 1 [2]. For the same compound, the share remaining at 0.5 h, 0.1 µM is 8% in the data set “in vitro [3]” and 65% in “in vitro [4]”. Further, the efflux ratio on MDR1 (ABCB1, P-gp) came out at 5.3. The same compound had an inhibition at 5 µM against hERG (KCNH2) of 78%. For the same compound, the Papp in the data set “in vitro [5]” was 38 ×10⁻⁶ cm/s. Further, the pKa in “physchem” came to 7.8.
Take `C[C@@]1(c2cc(NC(=O)c3ccc(C#N)cn3)ccc2F)CCSC(N)=N1`: the amount remaining at 0.5 h, 0.1 µM in the data set “in vitro [3]” stood at 66%; in the data set “in vitro [4]”, 104%. At hERG (KCNH2), this compound gave an inhibition at 5 µM of 91%. In the data set “in vitro [5]”, this compound yielded a Papp of 12 ×10⁻⁶ cm/s. The pKa in the data set “physchem” was 9.
`N#Cc1ccc(C(=O)Nc2ccc(F)c([C@]3(CF)CCSC(N)=N3)c2)nc1`: the IC50 against Beta-secretase 1 [1] worked out at 0.62 nM; against Beta-secretase 1 [2], 16 nM. The share remaining at 0.5 h, 0.1 µM in “in vitro [3]” worked out at 64%; in the data set “in vitro [4]”, 86%. In addition, the efflux ratio on MDR1 (ABCB1, P-gp) worked out at 22. On hERG (KCNH2), the inhibition at 5 µM came out at 90%. The compound also displayed a Papp in “in vitro [5]” of 22 ×10⁻⁶ cm/s. The compound also registered a pKa in “physchem” of 7.6.
`C[C@@]1(c2cc(C(=O)Nc3ccc(Cl)cn3)ccc2F)CCSC(N)=N1`: the IC50 on Beta-secretase 1 [1] was found to be 0.84 nM; against Beta-secretase 1 [2], 6.7 nM.
For `CCc1ccc(CCOc2ccc(CC3SC(=O)NC3=O)cc2)nc1` (stereo not drawn) [PIOGLITAZONE], the Drug metabolism in [6] worked out at 12 pmol; in data set [7] it was 599 pmol; in [8], 3458 pmol; in data set [9] it was 3446 pmol; in data set [10], 4 pmol; in data set [11], 594 pmol.

A word on the IC50: it is the point on the concentration scale where inhibition reaches its midpoint. Broadly, the inhibition is the change of the read-out against control, counted positive when it falls. The low end stands for a response near the control, the high end for a response far below the control. As a reminder, the efflux ratio is a quotient of directional permeabilities that is used to spot active efflux. A word on the Papp: it is a coefficient for how fast a substance crosses the barrier. What is called pKa is the pH at which an ionisable group is half protonated. A high value points to a group that holds its proton tightly.

(Values after ChEMBL document CHEMBL4811232 (J Med Chem, 2021).)
